Laboratory results: patent publication US10835540B2, “Pharmaceutical use” (Lucolas-M.D. Ltd., priority 2011, dated 2020)

System: mastodynia
Experiment: Previous prescriptions for pre-menstrual breast pain (anamnesis, Example 8)
Assay type: in vivo, human
Settings: Example 8 patient; for effect of previous prescription on breast pain symptoms: 'The same applies' in b116 refers to 'basically without any effect'
Source text: Pre-menstrual syndrome with symptoms of strong pain in both breasts since puberty. Dynamic increase of the symptoms with extremely strong tactile sensitivity, strong sensation of swelling and tension with pain symptoms diffusely radiating into the chest and the arms, which becomes virtually unbearable until the beginning of the menstruation. Unable to work because of these conditions for 2-4 days per month since 3 years. Intimate touching not possible for 14 days per month due to the pathologic tactile hyper-sensitivity. Fading-away of the symptoms only 7-10 days after the beginning of the menstruation.

Structure (SMILES) | effect of previous prescription on breast pain symptoms | effect on breast pain symptoms (20 mg) | side-effects (20 mg, mainly cardiovascular, led to quitting the therapy)
CC(C)C[C@H]1C(=O)N2CCC[C@H]2[C@]2(O)O[C@](NC(=O)[C@@H]3C=C4c5cccc6[nH]c(Br)c(c56)C[C@H]4N(C)C3)(C(C)C)C(=O)N12 [Bromocriptin] | The same applies |  | 
C#C[C@]1(O)CC[C@H]2[C@@H]3CCC4=Cc5oncc5C[C@]4(C)[C@H]3CC[C@@]21C [Danazol] | The same applies |  | 
CC/C(=C(\c1ccccc1)c1ccc(OCCN(C)C)cc1)c1ccccc1 [Tamoxifen] |  | considerable alleviation of the symptoms | uncontrolled increase of blood pressure
